Article PMC8228600, “Design, Synthesis, In Vitro and In Vivo Evaluation of Heterobivalent SiFAlin-Modified Peptidic Radioligands Targeting Both Integrin αvβ3 and the MC1 Receptor—Suitable for the Specific Visualization of Melanomas?” (Pharmaceuticals, 2021)
Read-outs that look alike come from different tables or passages of the source.

Tests used:
[1] = system: MC1R-positive B16F10 tumors; experiment: Ex vivo biodistribution: uptake in B16F10 tumors and tumor-to-organ ratios; set-up: species or system nude mice (Balb/cAnNRj-Foxn1nu/nu); conditions: NDP blocking (20 μg coinjected); ex vivo after PET/CT scan; i.v.; n = 3
Experimental: (§1) For the evaluation of the in vivo pharmacokinetics, the two most promising HBPLs—[^18F]2 with the highest affinity to both target receptors and [^18F]4 with the highest hydrophilicity and still reasonable binding affinities—were selected. For PET/CT imaging, 6-week-old male nude mice (Balb/cAnNRj-Foxn1^nu/nu) were subcutaneously injected with 5 × 10^5 B16F10 cells into the right flank and 2.0–2.5 × 10^6 U87MG cells into the left flank to generate the respective receptor-positive tumors. When the tumors reached a sufficient size for imaging, each mouse was administered 4.15 ± 2.28 MBq of [^18F]2 or 3.95 ± 2.06 MBq of [^18F]4 via the lateral tail vein under isoflurane anesthesia. To determine the receptor specificity of both peptide parts of the labeled HBPLs and their relative contribution to overall tumor uptake, blocking experiments were also performed. […] After i.v. injection of the tracers, a dynamic PET scan, followed by a CT scan, was performed. The resulting PET/CT images and time–activity curves (TACs) are depicted in Figure 6, Figure 7 and Figure 8. After completion of the diagnostic scans, the mice were sacrificed, their organs (blood, spleen, liver, kidney, pancreas, lung, heart, brain, bone, muscle, tail, tumors, stomach, colon and small intestine) were collected and measured in a γ-counter for ex vivo biodistribution (see Supplementary Materials Table S1 for detailed results).
(§2) Each male nude mouse (six weeks old) was injected subcutaneously with 5 × 10^5 B16F10 cells into the right flank and 2.0–2.5 × 10^6 U87MG cells into the left flank. The health status and tumor growth of the mice were monitored regularly until the animals could be examined after 15–21 days, depending on the tumor size. For the in vivo experiments, the ^18F-radiolabeled compound was diluted in 0.9% saline to give a final EtOH concentration of <10%. Each mouse was injected with 4.15 ± 2.28 MBq of [^18F]2 or 3.95 ± 2.06 MBq of [^18F]4 via the lateral tail vein under isoflurane anesthesia. […] Each ^18F-labeled compound was studied with or without blocking in at least three mice. Mice were measured under isoflurane anesthesia in a small PET/SPECT/CT animal imaging system. First, a dynamic PET scan was performed over 90 min and the scan was framed in 29 timeframes (10 × 1 min, 10 × 2 min, 6 × 5 min, 3 × 10 min). Images were reconstructed using 12 iterations, a maximum likelihood expectation maximization (MLEM) algorithm including corrections for scattered radiation and decay and a voxel size of 0.5 mm. All PET scans were immediately followed by CT acquisition at a voltage of 45 kV and a current of 400 μA. The images were reconstructed using the filtered back projection (FBP) algorithm with a voxel size of 250 μm. The analysis of the data, including the generation of TACs of the kidneys, liver and tumors and the MIPs, was performed via PMOD (v3.8). For ex vivo biodistribution, the mice were sacrificed directly after the PET/CT scan. Organs (blood, spleen, liver, kidneys, pancreas, lungs, heart, brain, bone, muscle, tail, tumors, stomach, colon and small intestine) were collected, weighed and their radioactivity measured in a γ-counter. The percentage injected dose per gram (% ID/g) of each tissue was calculated from the determined values, organ weights, reference values and injected activity.

[2] = as above; set-up: species or system nude mice (Balb/cAnNRj-Foxn1nu/nu); conditions: male, Balb/cAnNRj-Foxn1nu/nu (nude), mouse, iv, total radioactivity; for tissue uptake: B16F10 tumor (MC1R-positive); for tissue to tissue ratio: ex vivo biodistribution, mean (n = 3) ± SD
Experimental: as §1, §2

[3] = Ex vivo biodistribution in tumor-bearing nude mice (non-tumor tissues); conditions: male, Balb/cAnNRj-Foxn1nu/nu (nude), mouse, iv, total radioactivity, ex vivo after PET/CT scan, i.v., n = 3; for tissue uptake: colon, read-out: ID/g, colon
Experimental: as §1, §2

SMILES: CCCC[C@H](NC(=O)CNC(=O)CNC(=O)CCOCCOCCOCCOCCC(=O)NCCCN(CCCNC(=O)CCOCCOCCOCCOCCC(=O)NCCCC[C@@H]1NC(=O)[C@@H](Cc2ccccc2)NC(=O)[C@H](CC(=O)O)NC(=O)CNC(=O)[C@H](CCCNC(=N)N)NC1=O)CC(=O)N[C@@H](CCCCNC(=O)CCC[N+](C)(C)Cc1ccc([Si](F)(C(C)(C)C)C(C)(C)C)cc1)C(N)=O)C(=O)N[C@H]1CC(=O)NCCCC[C@@H](C(N)=O)NC(=O)[C@H](Cc2c[nH]c3ccccc23)NC(=O)[C@H](CCCNC(=N)N)NC(=O)[C@@H](Cc2ccccc2)NC(=O)[C@H](Cc2c[nH]cn2)NC1=O [[^18F]2]
- ID/g, B16F10 tumor [1]: 1.83 ± 0.24 % ID/g
- tissue uptake ([2]; NDP blocking (20 μg coinjected), ex vivo after PET/CT scan, i.v., n = 3): 1.83 ± 0.24 %ID/g
- tissue uptake ([2]; c(RGDyK) blocking (200 μg coinjected), ex vivo after PET/CT scan, i.v., n = 3): 1.98 ± 0.18 %ID/g
- tissue uptake ([2]; double blocking (NDP + c(RGDyK)), ex vivo after PET/CT scan, i.v., n = 3): 1.14 ± 0.42 %ID/g
- tissue uptake ([2]; without blocking, ex vivo after PET/CT scan, i.v., n = 3): 2.32 ± 0.49 %ID/g
- tissue to tissue ratio ([2]; B16F10 tumor / blood, without blocking, read-out: tumor/blood ratio, B16F10): 2.42 ± 0.73
- tissue to tissue ratio ([2]; B16F10 tumor / kidneys, without blocking, read-out: tumor/kidneys ratio, B16F10): 0.19 ± 0.1
- tissue to tissue ratio ([2]; B16F10 tumor / liver, without blocking, read-out: tumor/liver ratio, B16F10): 0.16 ± 0.11
- tissue to tissue ratio ([2]; B16F10 tumor / muscle, without blocking, read-out: tumor/muscle ratio, B16F10): 0.68 ± 0.41
- tissue uptake at 1.5 h ([2]; B16F10 tumor, without blocking, ex vivo after PET/CT scan, i.v., n = 3): 2.32 ± 0.49 %ID/g
- tissue uptake at 1.5 h ([3]; blood, NDP blocking (20 μg coinjected), read-out: ID/g, blood): 0.84 ± 0.12 %ID/g
- tissue uptake at 1.5 h ([3]; blood, c(RGDyK) blocking (200 μg coinjected), read-out: ID/g, blood): 1.14 ± 0.15 %ID/g
- tissue uptake at 1.5 h ([3]; blood, double blocking (NDP + c(RGDyK)), read-out: ID/g, blood): 1.13 ± 0.1 %ID/g
- tissue uptake at 1.5 h ([3]; blood, without blocking, read-out: ID/g, blood): 0.99 ± 0.23 %ID/g
- tissue uptake at 1.5 h ([3]; bone, NDP blocking (20 μg coinjected), read-out: ID/g, bone): 9.74 ± 2.85 %ID/g
- tissue uptake at 1.5 h ([3]; bone, c(RGDyK) blocking (200 μg coinjected), read-out: ID/g, bone): 4.12 ± 0.73 %ID/g
- tissue uptake at 1.5 h ([3]; bone, double blocking (NDP + c(RGDyK)), read-out: ID/g, bone): 4.47 ± 1.57 %ID/g
- tissue uptake at 1.5 h ([3]; bone, without blocking, read-out: ID/g, bone): 8.01 ± 3.48 %ID/g
- tissue uptake at 1.5 h ([3]; brain, NDP blocking (20 μg coinjected), read-out: ID/g, brain): 0.13 ± 0.03 %ID/g
- tissue uptake at 1.5 h ([3]; brain, c(RGDyK) blocking (200 μg coinjected), read-out: ID/g, brain): 0.13 ± 0.05 %ID/g
- tissue uptake at 1.5 h ([3]; brain, double blocking (NDP + c(RGDyK)), read-out: ID/g, brain): 0.07 ± 0.01 %ID/g
- tissue uptake at 1.5 h ([3]; brain, without blocking, read-out: ID/g, brain): 0.18 ± 0.02 %ID/g
- tissue uptake ([3]; NDP blocking (20 μg coinjected)): 1.44 ± 0.34 %ID/g
- tissue uptake ([3]; c(RGDyK) blocking (200 μg coinjected)): 0.5 ± 0.07 %ID/g
- tissue uptake ([3]; double blocking (NDP + c(RGDyK))): 0.63 ± 0.2 %ID/g
- tissue uptake ([3]; without blocking): 1.58 ± 0.44 %ID/g
- tissue uptake at 1.5 h ([3]; heart, NDP blocking (20 μg coinjected), read-out: ID/g, heart): 1.06 ± 0.31 %ID/g
- tissue uptake at 1.5 h ([3]; heart, c(RGDyK) blocking (200 μg coinjected), read-out: ID/g, heart): 0.62 ± 0.09 %ID/g
- tissue uptake at 1.5 h ([3]; heart, double blocking (NDP + c(RGDyK)), read-out: ID/g, heart): 0.93 ± 0.18 %ID/g
- tissue uptake at 1.5 h ([3]; heart, without blocking, read-out: ID/g, heart): 1.24 ± 0.36 %ID/g
- tissue uptake at 1.5 h ([3]; kidneys, NDP blocking (20 μg coinjected), read-out: ID/g, kidneys): 17.3 ± 2.08 %ID/g
- tissue uptake at 1.5 h ([3]; kidneys, c(RGDyK) blocking (200 μg coinjected), read-out: ID/g, kidneys): 12.1 ± 2.3 %ID/g
- tissue uptake at 1.5 h ([3]; kidneys, double blocking (NDP + c(RGDyK)), read-out: ID/g, kidneys): 24 ± 6.34 %ID/g
- tissue uptake at 1.5 h ([3]; kidneys, without blocking, read-out: ID/g, kidneys): 13.2 ± 3.57 %ID/g
- tissue uptake at 1.5 h ([3]; liver, NDP blocking (20 μg coinjected), read-out: ID/g, liver): 14.9 ± 5.07 %ID/g
- tissue uptake at 1.5 h ([3]; liver, c(RGDyK) blocking (200 μg coinjected), read-out: ID/g, liver): 4.94 ± 1.39 %ID/g
- tissue uptake at 1.5 h ([3]; liver, double blocking (NDP + c(RGDyK)), read-out: ID/g, liver): 8.5 ± 2.71 %ID/g
